According to patent US12071424B2, “IRE1 small molecule inhibitors” (Cornell University, priority 2017, dated 2024):

Columns and labels:
IRE1a [1] = target: T1, IRE1a (Homo sapiens, UniProt O75460); assay: In vitro FRET assay (IRE1a cleavage of XBP1 RNA probe); type: biochemical; settings: 2 nM SignalChem IRE1a, tested as Formic Acid Salt (37: HCl Salt)
T1 construct: purchased SignalChem
Method: In vitro FRET assay was performed to evaluate the ability of select compounds to inhibit IRE1, the results of which are summarized in Table 3. To perform the in vitro FRET assay, 1× complete assay buffer (CAB: […], 50 mM sodium citrate pH 7.15, 1 mM magnesium acetate, 0.02% tween 20) was used to SignalChem IRE1a protein to a final concentration of 2 nM. Selected compounds were serially diluted with DMSO in a non-binding black 384-well plate for a total of 15 ul in each well. 2 ul of the serially diluted compound or DMSO control were then added to new wells containing 98 ul of 1× CAB, for a total volume of 100 ul, 10 ul of which were then transferred to wells of a new plate. 5 ul of the diluted IRE1a was then added to each well. 5 ul of a […] XBP1 RNA probe was then added to each well. Fluorescence was then read over 30 minutes in kinetic mode (485/515 nm).
Two RNA probes were used, XBP1 wildtype (SEQ ID NO: 2) which is able to be spliced by active IRE1a or XBP1 mutant (SEQ ID NO: 3) which is unable to be spliced. Each probe contained a 5′ 6-FAM modification and a 3′ IOWA black FQ modification. […]

IRE1a [2] = assay: IRE1a Endoribonuclease Nanoluciferase Assay (XBP1 luciferase reporter in 293T cells); type: cell-based, human; settings: Homo sapiens, HEK-293T, ER stressor, tested as Formic Acid Salt (37: HCl Salt)
Method: Compounds disclosed herein assessed for disruption of IRE1 signaling using a IRE1a Endoribonuclease Nanoluciferase Assay. Briefly, 25×10^5 293T cells were seeded in a 10 cm^2 tissue culture plate. About 24 hours later, the cells were transfected with Effectene. In a 15 mL tube, the following was added: 2 ug XBP1 luciferase reporter plasmid (PGK-Luc2-P2A-XBP1u-Nanoluciferase-Pest); 300 ul EC buffer; and 16 ul Enhancer, followed by incubation at room temp for 5 minutes. Next, 60 ul Effectene (Qiagen 301427) was added, followed by incubation at room temperature for 10 minutes. 2.6 mL cDMEM media was added. Old media was aspirated from the cells, followed by addition of 7 mL fresh media. Full transfection mixture was added dropwise to cells. Cells were incubated for 6 hours, followed by trypsinization, centrifugation and resuspension in 11 mL fresh cDMEM media. 100 uL of cells were plated per a well in a 96 well plate. A day later, ER stressors of choice +/−inhibitors were added. To harvest, media was aspirated from cells completely, then 50 uL 1× passive lysis buffer (Promega: E1941) was added per well and put on shaker (300 rpm) for 30 minutes at room temperature. Cells were centrifuged, and 15 uL sample per well was added to a new, opaque white 384 well plate (Corning 3570). 15 uL OneGlo (nanoluciferase kit, Promega N1630) was added. Plates were spun down, placed on shaker (300 rpm) for 10 minutes. Plates were read on luminometer, 1000 ms integration time per well. 15 uL Stop an Glo (nanoluciferase kit) was added. Plates were spun down, placed on shaker (300 rpm) for 10 minutes. Plates were read on luminometer, 1000 ms second integration time per well. Recordings are provided below in Table 4.

T1 sequence (O75460 19-977): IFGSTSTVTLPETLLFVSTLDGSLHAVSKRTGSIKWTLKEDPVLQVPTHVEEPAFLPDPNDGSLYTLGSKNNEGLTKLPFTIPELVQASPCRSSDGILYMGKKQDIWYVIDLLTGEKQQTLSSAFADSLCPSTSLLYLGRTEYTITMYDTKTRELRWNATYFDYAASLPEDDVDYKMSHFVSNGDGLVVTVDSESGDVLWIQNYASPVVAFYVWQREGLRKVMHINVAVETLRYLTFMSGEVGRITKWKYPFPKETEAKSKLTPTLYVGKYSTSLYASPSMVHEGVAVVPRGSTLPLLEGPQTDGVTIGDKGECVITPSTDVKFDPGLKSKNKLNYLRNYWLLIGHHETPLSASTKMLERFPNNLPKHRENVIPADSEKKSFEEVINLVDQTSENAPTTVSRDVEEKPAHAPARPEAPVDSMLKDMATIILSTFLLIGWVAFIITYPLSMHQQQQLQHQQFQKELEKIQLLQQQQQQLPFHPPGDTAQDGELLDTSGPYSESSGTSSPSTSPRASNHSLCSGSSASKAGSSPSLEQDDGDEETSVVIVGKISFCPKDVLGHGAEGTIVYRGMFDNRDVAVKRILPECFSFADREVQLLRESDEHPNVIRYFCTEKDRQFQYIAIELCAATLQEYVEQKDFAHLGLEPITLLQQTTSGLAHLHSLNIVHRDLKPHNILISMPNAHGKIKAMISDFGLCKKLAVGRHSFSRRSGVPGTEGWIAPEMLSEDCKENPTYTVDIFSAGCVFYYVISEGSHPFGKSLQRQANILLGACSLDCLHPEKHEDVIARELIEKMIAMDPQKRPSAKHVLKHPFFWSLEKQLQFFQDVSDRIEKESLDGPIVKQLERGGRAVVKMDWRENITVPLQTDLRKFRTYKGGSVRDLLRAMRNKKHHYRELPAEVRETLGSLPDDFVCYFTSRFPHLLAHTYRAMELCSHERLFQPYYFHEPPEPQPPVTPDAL

| Compound | IC50 (IRE1a [1]) | EC50 (IRE1a [2]) |
| --- | --- | --- |
| CCc1cc(-c2ccc(NS(=O)(=O)c3cccc(C)c3Cl)nc2C)cc2cnc(N[C@H]3CC[C@H](N(C)C)CC3)nc12 [Compound 160, 2-chloro-N-(5-(2-(((1r,4r)-4-(dimethylamino)cyclohexyl)amino)-8-ethylquinazolin-6-yl)-6-methylpyridin-2-yl)-3-methylbenzenesulfonamide] | ≤ 5 nM | ≤ 5 nM |
| CCc1cc(-c2nnc(NS(=O)(=O)c3ccccc3Cl)cc2OC)cc2cnc(N[C@H]3CC[C@H](N(C)C)CC3)nc12 [Compound 159, 2-chloro-N-(6-(2-(((1r,4r)-4-(dimethylamino)cyclohexyl)amino)-8-ethylquinazolin-6-yl)-5-methoxypyridazin-3-yl)benzenesulfonamide] | ≤ 5 nM | 5 to 50 nM |
| CCc1cc(-c2cc(F)c(NS(=O)(=O)c3ccccc3Cl)nc2OC)cc2cnc(N[C@H]3CC[C@H](NC)CC3)nc12 [Compound 127, 2-chloro-N-(5-(8-ethyl-2-(((1r,4r)-4-(methylamino)cyclohexyl)amino)quinazolin-6-yl)-3-fluoro-6-methoxypyridin-2-yl)benzenesulfonamide] | ≤ 5 nM | ≤ 5 nM |
| CCc1cc(-c2ccc(NS(=O)(=O)c3ccccc3C)nc2OC)cc2cnc(N[C@H]3CC[C@H](NC)CC3)nc12 [Compound 118, N-(5-(8-ethyl-2-(((1r,4r)-4-(methylamino)cyclohexyl)amino)quinazolin-6-yl)-6-methoxypyridin-2-yl)-2-methylbenzenesulfonamide] | ≤ 5 nM | ≤ 5 nM |
| CCc1cc(-c2ccc(NS(=O)(=O)c3ccccc3Cl)c(F)c2)cc2cnc(N[C@@H]3CCC[C@H](N)C3)nc12 [Compound 72, N-(4-(2-(((1R,3S)-3-aminocyclohexyl)amino)-8-ethylquinazolin-6-yl)-2-fluorophenyl)-2-chlorobenzene-sulfonamide] | ≤ 5 nM | 100 to 10000 nM |
| COCc1cc(-c2ccc(NS(=O)(=O)c3ccccc3Cl)nc2OC)cc2cnc(N[C@H]3CC[C@H](N(C)C)CC3)nc12 [Compound 137, 2-chloro-N-(5-(2-(((1r,4r)-4-(dimethylamino)cyclohexyl)amino)-8-(methoxymethyl)quinazolin-6-yl)-6-methoxypyridin-2-yl)benzenesulfonamide] | ≤ 5 nM | ≤ 5 nM |
| CCc1cc(-c2ncc(NS(=O)(=O)c3ccccc3Cl)nc2OC)cc2cnc(N[C@H]3CC[C@H](N(C)C)CC3)nc12 [Compound 157, 2-chloro-N-(5-(2-(((1r,4r)-4-(dimethylamino)cyclohexyl)amino)-8-ethylquinazolin-6-yl)-6-methoxypyrazin-2-yl)benzenesulfonamide] | ≤ 5 nM | ≤ 5 nM |
| COc1nc(NS(=O)(=O)c2ccccc2Cl)c(F)cc1-c1ccc2nc(N[C@H]3CC[C@H](N(C)C)CC3)ncc2c1 [Compound 149, 2-chloro-N-(5-(2-(((1r,4r)-4-(dimethylamino)cyclohexyl)amino)quinazolin-6-yl)-3-fluoro-6-methoxypyridin-2-yl)benzenesulfonamide] | ≤ 5 nM | 5 to 50 nM |
| COc1nc(NS(=O)(=O)c2ccccc2Cl)ccc1-c1cc(C(C)(F)F)c2nc(N[C@H]3CC[C@H](N(C)C)CC3)ncc2c1 [Compound 124, 2-chloro-N-(5-(8-(1,1-difluoroethyl)-2-(((1r,4r)-4-(dimethylamino)cyclohexyl)amino)quinazolin-6-yl)-6-methoxypyridin-2-yl)benzenesulfonamide] | ≤ 5 nM | ≤ 5 nM |
| N[C@H]1CCC[C@@H](Nc2ncc3cc(-c4ccc(NS(=O)(=O)c5ccccc5Cl)c(F)c4)ccc3n2)C1 [Compound 75, N-(4-(2-(((1R,3S)-3-aminocyclohexyl)amino)quinazolin-6-yl)-2-fluorophenyl)-2-chlorobenzene-sulfonamide] | ≤ 5 nM | 100 to 10000 nM |

Second part, the molecule after the results:

| IC50 (IRE1a [1]) | EC50 (IRE1a [2]) | Compound |
| --- | --- | --- |
| ≤ 5 nM | ≤ 5 nM | CCc1cc(-c2ccc(NS(=O)(=O)c3ccccc3Cl)nc2C)cc2cnc(N[C@H]3CC[C@H](N(C)CCOC)CC3)nc12 [Compound 132, 2-chloro-N-(5-(8-ethyl-2-(((1r,4r)-4-((2-methoxyethyl)(methyl)amino)cyclohexyl)amino)quinazolin-6-yl)-6-methylpyridin-2-yl)benzenesulfonamide] |
| ≤ 5 nM | ≤ 5 nM | N[C@H]1CC[C@H](Nc2ncc3cc(-c4ccc(NS(=O)(=O)c5ccccc5Cl)cc4)ccc3n2)CC1 [Compound 26, N-(4-(2-(((1r,4r)-4-aminocyclohexyl)amino)quinazolin-6-yl)phenyl)-2-chlorobenzene-sulfonamide] |
| ≤ 5 nM | ≤ 5 nM | N[C@H]1CC[C@H](Nc2cc3ccc(-c4ccc(NS(=O)(=O)c5ccccc5Cl)c(F)c4)cc3cn2)CC1 [Compound 57, N-(4-(3-(((1r,4r)-4-aminocyclohexyl)amino)isoquinolin-7-yl)-2-fluorophenyl)-2-chlorobenzene-sulfonamide] |
| ≤ 5 nM | 5 to 50 nM | N[C@H]1CC[C@H](Nc2ncc3cc(-c4ccc(NS(=O)(=O)c5ccccc5Cl)cc4F)ccc3n2)CC1 [Compound 48, N-(4-(2-(((1r,4r)-4-amiocyclohexyl)amino)quinazolin-6-yl)-3-fluorophenyl)-2-chlorobenzene-sulfonamide] |
| ≤ 5 nM | ≤ 5 nM | CCc1c(F)c(-c2ccc(NS(=O)(=O)c3ccccc3Cl)nc2C)cc2cnc(N[C@H]3CC[C@H](N(C)C)CC3)nc12 [Compound 161, 2-chloro-N-(5-(2-(((1r,4r)-4-(dimethylamino)cyclohexyl)amino)-8-ethyl-7-fluoroquinazolin-6-yl)-6-methylpyridin-2-yl)benzenesulfonamide] |
| ≤ 5 nM | ≤ 5 nM | CCc1cc(-c2cc(F)c(NS(=O)(=O)c3ccccc3Cl)nc2OC)cc2cnc(N[C@H]3CC[C@H](N(C)C)CC3)nc12 [Compound 128, 2-chloro-N-(5-(2-(((1r,4r)-4-(dimethylamino)cyclohexyl)amino)-8-ethylquinazolin-6-yl)-3-fluoro-6-methoxypyridin-2-yl)benzenesulfonamide] |
| ≤ 5 nM | ≤ 5 nM | COc1nc(NS(=O)(=O)c2ccccc2Cl)ccc1-c1cc(C(F)(F)F)c2nc(N[C@H]3CC[C@H](N(C)C)CC3)ncc2c1 [Compound 135, 2-chloro-N-(5-(2-(((1r,4r)-4-(dimethylamino)cyclohexyl)amino)-8-(trifluoromethyl)quinazolin-6-yl)-6-methoxypyridin-2-yl)benzenesulfonamide] |
| ≤ 5 nM | ≤ 5 nM | N[C@H]1CC[C@H](Nc2ncc3cc(-c4cc(F)c(NS(=O)(=O)c5ccccc5Cl)cc4F)ccc3n2)CC1 [Compound 53, N-(4-(2-(((1r,4r)-4-aminocyclohexyl)amino)quinazolin-6-yl)-2,5-difluorophenyl)-2-chlorobenzene-sulfonamide] |
| ≤ 5 nM | ≤ 5 nM | CCc1nc(NS(=O)(=O)c2ccccc2Cl)ccc1-c1cc(CC)c2nc(N[C@H]3CC[C@H](N(C)C)CC3)ncc2c1 [Compound 117, 2-chloro-N-(5-(2-(((1r,4r)-4-(dimethylamino)cyclohexyl)amino)-8-ethylquinazolin-6-yl)-6-ethylpyridin-2-yl)benzenesulfonamide] |
| ≤ 5 nM | ≤ 5 nM | COc1nc(NS(=O)(=O)c2ccccc2Cl)ccc1-c1cc(C)c2nc(N[C@H]3CC[C@H](N(C)C)CC3)ncc2c1 [Compound 133, 2-chloro-N-(5-(2-(((1r,4r)-4-(dimethylamino)cyclohexyl)amino)-8-methylquinazolin-6-yl)-6-methoxypyridin-2-yl)benzenesulfonamide] |
| ≤ 5 nM | ≤ 5 nM | CCc1cc(-c2ccc(NS(=O)(=O)c3ccccc3Cl)nc2C)cc2cnc(N[C@H]3CC[C@H](NC)CC3)nc12 [Compound 122, 2-chloro-N-(5-(8-ethyl-2-(((1r,4r)-4-(methylamino)cyclohexyl)amino)quinazolin-6-yl)-6-methylpyridin-2-yl)benzenesulfonamide] |
